For 6 compounds, IC50 results are on record in patent US8158799B2, “Hydroxyquinoline derivatives” (Merck Patent Gesellschaft MIT Meschraenkter Haftung, priority 2005, dated 2012).

This experiment has as its system colon carcinoma cell lines. Put plainly: Inhibition of the proliferation of tumour cells in vitro (propidium iodide uptake). The class given is cell-based. The conditions noted are these: 72 h, 10,000 cells per well, 3 days incubation at 37° C., propidium iodide/NP40 fluorescence, % of control. An excerpt: The antiproliferative action can be tested in an HCT116 proliferation assay.
The present experimental description describes the inhibition of tumour cell proliferation by active ingredients.
The cell proliferation is estimated by measurement of the uptake of propidium iodide. […] It is prevented from entering healthy cells. However, if cells have been killed by addition of the detergent NP40, cell membrane and nuclear membrane become permeable. PI attaches itself to the DNA of the cell nuclei and fluoresces in this complex. This fluorescence is measured in the fluorimeter.
commercially available colon carcinoma cell lines
10,000 cells are plated out per well, in a volume of 180 μl, in a 96-hole plate. The outer rows A1-12, 1A-H, 12A-H and H1-12 are only filled with 200 μl of medium or buffer.
The cells are incubated for 24 hours, at 37° C. and 10% CO2 gassing.
In order to test active substances, the corresponding dilutions must first be produced and assigned to the wells. The scheme of a 1:3 dilution indicated here as an example can be varied correspondingly as desired. The scheme described is designed for 4 test substances.
20 μl of medium, solvent dilution or the corresponding dilution of the positive control (IC50) are pipetted into these holes.
Substance groups (column B-G, wells 2-9): 20 μl of substance dilution are pipetted into these holes.
147 μl of medium is introduced into each of the wells of row B of the extra plate in columns 1, 2, 3, 4, and 3 μl of the test substance are added (=300 μM). 100 μl of medium are introduced into rows C-G, columns 1-4. 50 μl are then transferred into row C using a multichannel pipette, mixed 8×, and 50 μl are then transferred from this row into row D. This is continued correspondingly until row G has been reached, in which, after mixing, 50 μl of the dilution are removed and discarded. 100 μl of each desired dilution are now located in the extra plate, and it is now only necessary to transfer 20 μl directly into the test plate.
The plate is incubated at 37° C. and 10% CO2 gassing for 3 days.
The cells multiplying in this time are determined by means of propidium iodide.
20 μl of PI stock solution and 10 μl of NP40 stock solution are required per well. Since each plate has 72 wells charged with PI and with NP40, 1440 μl of the PI stock solution and 720 μl of the NP40 stock solution are required per plate. Taking into account pipetting losses, 1.8 ml of PI stock solution are thus taken and mixed with 0.9 ml of the NP40 stock solution immediately before pipetting in. 30 μl of the PI/NP40 mixture are now pipetted into each of the wells of the plate, each of which contain 200 μl of medium. The plate is subsequently placed in the incubator for 2 hours.
The plate(s) is measured in a fluorescence photometer at a wavelength Ex. 520 nm and Em of 620 nm. The background (=medium+PI) is subtracted from all values, which are subsequently averaged (double values) and expressed or calculated in % of control.
An IC50 (half-maximum action) can now be calculated using a statistics program such as, for example, RS1.
Prepare the desired stock solution at […] in DMSO. Adjust to ten times the concentration to be tested in the cell culture (see above) by dilution in culture medium.
Regarding `O=C(CC(c1ccccc1)c1ccccc1)Nc1cc(Cl)c2cccnc2c1O` [Compound A1, N-(5-chloro-8-hydroxyquinolin-7-yl)-3,3-diphenylpropionamide], the half-inhibitory concentration (IC50) worked out at 90 nM.

Regarding `O=C(Nc1cc(Cl)c2cccnc2c1O)C(c1ccccc1)c1ccccc1` [Compound A2, N-(5-chloro-8-hydroxyquinolin-7-yl)-2,2-diphenylacetamide], the IC50 stood at 2100 nM. This IC50 is about 23-fold higher than that of the compound before.

Regarding `O=C(Nc1cc(Cl)c2cccnc2c1O)C(Cc1ccccn1)c1ccccc1` (stereo not drawn) [Compound A3, N-(5-chloro-8-hydroxyquinolin-7-yl)-2-phenyl-3-pyridin-2-ylpropionamide], the IC50 is 1100 nM.

`O=C(Nc1cc(Cl)c2cccnc2c1O)NC(c1ccccc1)c1ccccn1` (stereo not drawn) [Compound A14, 1-(5-chloro-8-hydroxyquinolin-7-yl)-3-(phenylpyridin-2-ylmethyl)urea] showed an IC50 of 90 nM.

`O=C(Nc1ccc(C(F)(F)F)cc1)Nc1ccc2cccnc2c1O` [Compound A19, 1-(8-Hydroxyquinolin-7-yl)-3-(4-trifluoromethylphenyl)urea]: the midpoint of inhibition, the IC50, lay at 1500 nM. Compared with the last compound, the IC50 is about 17-fold higher.

In the case of `CCOc1ccccc1NC(=O)Nc1ccc2cccnc2c1O` [Compound A20, 1-(2-Ethoxyphenyl)-3-(8-hydroxyquinolin-7-yl)-urea], the midpoint of inhibition, the IC50, lay at 210 nM.
